This note sets out measurements from patent US12642270B2, “Substituted thiophene carboxamides, thiophene carboxylic acids and derivatives thereof” (Bayer Aktiengesellschaft, priority 2019, dated 2026).

This series is described as follows: Log P by HPLC on reversed phase columns (EEC directive 79/831 Annex V.A8). The series is classed as physicochemical. The following applies: LogP method [a]; compounds of formula (I), Table 1.1. In a few lines:
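Reversed-phase HPLC per EEC 79/831 Annex V.A8, LC-UV with 10→95% acetonitrile linear gradient; eluent [a] 0.1% formic acid (acidic), [b] 0.001 M ammonium acetate (neutral), [c] 0.1% phosphoric acid (acidic). Calibrated with C3–C16 straight-chain alkan-2-ones, linear interpolation of retention times; multiple values joined by "+".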
With `COC(=O)C(CC(F)F)NC(=O)c1cc(Br)c(Cl)s1` (stereo not shown) [1.0438], the LogP is 3.07^[a]. Then `CCOC(=O)C1(NC(=O)c2cc(Br)c(Cl)s2)CCC1` [1.0439], with 3.44^[a]; and `COC(=O)C(CC(F)F)NC(=O)c1sc(Br)c(Br)c1F` (stereo not shown) [1.0440], with 3.23^[a]. For the molecule `CCOC(=O)C(NC(=O)c1cc(Cl)c(Br)s1)C(C)C` (stereo not shown) [1.0441], the LogP is 3.85^[a]. Then `COC(=O)C(CC(F)F)NC(=O)c1cc(Cl)c(Br)s1` (stereo not shown) [1.0442], with 2.96^[a].

In the case of `CCOC(=O)C(Cc1ccccc1)NC(=O)c1cc(Cl)c(Br)s1` (stereo not shown) [1.0443], the LogP is 4.01^[a]. Then `CCOC(=O)C(CC(C)C)NC(=O)c1cc(Cl)c(Br)s1` (stereo not shown) [1.0444], with 4.19^[a].

Turning to `CCOC(=O)C1(CNC(=O)c2sc(Br)c(Br)c2F)CC1` [1.0445], the LogP was 3.86^[a]. As for `CCOC(=O)C1(NC(=O)c2sc(Br)c(Br)c2F)CCCC1` [1.0446], the figure is 4.21^[a]. As for `COC(=O)C1(NC(=O)c2sc(Br)c(Br)c2F)CCOCC1` [1.0447], the figure is 2.77^[a]; as for `COC(=O)CC(C)NC(=O)c1sc(Br)c(Br)c1F` (stereo not shown) [1.0448], 3.14^[a]; as for `CCOC(=O)CNC(=O)c1sc(Br)c(Br)c1F` [1.0449], 2.97^[a]. As for `CCOC(=O)CCNC(=O)c1sc(Br)c(Br)c1F` [1.0450], the figure is 3.11^[a]; as for `CCOC(=O)C(NC(=O)c1sc(Br)c(Br)c1F)C(C)C` (stereo not shown) [1.0451], 2.63^[a]; as for `CCOC(=O)C1(NC(=O)c2cc(Cl)c(Br)s2)CCC1` [1.0452], 3.29^[a]. For the molecule `CCOC(=O)CCNC(=O)c1cc(Br)c(Cl)s1` [1.0453], the LogP was 2.80^[a]. As for `CCOC(=O)C1(NC(=O)c2cc(Cl)c(Br)s2)CC1` [1.0454], the figure is 2.80^[a]; as for `O=C(NC1(C(=O)O)CC1)c1cc(Cl)c(Br)s1` [1.0455], 1.99^[a]. Take `CCOC(=O)CCNC(=O)c1cc(F)c(Br)s1` [1.0456]: the LogP was 2.47^[a].

As to `CCOC(=O)CNC(=O)c1cc(Br)c(Cl)s1` [1.0457], the LogP was 2.63^[a]. Consider `CCOC(=O)C1(NC(=O)c2cc(Br)c(Cl)s2)CC1` [1.0458], for which the LogP was 3.43^[a]. Then `CCOC(=O)C1(NC(=O)c2cc(F)c(Br)s2)CCC1` [1.0459], with 2.98^[a]; and `CCOC(=O)C1(NC(=O)c2cc(F)c(Br)s2)CC1` [1.0460], with 2.51^[a]; and `CCOC(=O)CNC(=O)c1cc(Cl)c(Br)s1` [1.0461], with 2.59^[a]. Then `CCOC(=O)CCNC(=O)c1cc(Cl)c(Br)s1` [1.0462], with 2.77^[a]; and `CCOC(=O)C1(NC(=O)c2sc(C)c(Br)c2F)CC1` [1.0463], with 2.80^[a]; and `CCOC(=O)CNC(=O)c1cc(C)c(Cl)s1` [1.0464], with 2.33^[a]. Then `CCOC(=O)CCNC(=O)c1cc(C)c(Cl)s1` [1.0465], with 2.49^[a]; and `CCOC(=O)C1(NC(=O)c2cc(C)c(Cl)s2)CC1` [1.0466], with 2.52^[a]. `CCOC(=O)CNC(=O)c1cc(F)c(Br)s1` [1.0467]: the LogP is 2.28^[a].

Regarding `CCOC(=O)C1(NC(=O)c2cc(I)c(I)s2)CC1` [1.0468], the LogP was 2.98^[a]. `O=C(NC1(C(=O)O)CC1)c1cc(I)c(I)s1` [1.0469]: the LogP was 2.08^[a]. Then `NC(=O)C1(NC(=O)C2(NC(=O)c3cc(I)c(I)s3)CC2)CC1` [1.0470], with 1.88^[a]; and `O=C(O)CNC(=O)c1cc(I)c(I)s1` [1.0471], with 1.87^[a].

Regarding `COC(=O)C(Cc1ccccc1)NC(=O)c1sc(Br)c(Br)c1F` (stereo not shown) [1.0472], the LogP was 4.06^[a]. Then `CSCCC(NC(=O)c1sc(Br)c(Br)c1F)C(=O)O` (stereo not shown) [1.0473], with 2.75^[a]. Turning to `O=C(O)CNC(=O)CNC(=O)c1cc(I)c(I)s1` [1.0474], the LogP is 1.63^[a]. Then `NC(=O)C1(NC(=O)c2cc(I)c(I)s2)CC1` [1.0475], with 1.87^[a]; and `CCOC(=O)C1(NC(=O)C2(NC(=O)c3cc(I)c(I)s3)CC2)CC1` [1.0476], with 2.59^[a].

With `CSC(=O)C1(NC(=O)c2cc(I)c(I)s2)CC1` [1.0477], the LogP is 3.04^[a]. Then `O=C(NC1(C(=O)NC2(C(=O)O)CC2)CC1)c1cc(I)c(I)s1` [1.0478], with 1.53^[a].

For `CCOC(=O)C1(NC(=S)c2cc(Cl)c(Br)s2)CC1` [1.0479], the LogP is 3.92^[a].

Take `CCSC(=O)C1(NC(=O)c2cc(I)c(I)s2)CC1` [1.0480]: the LogP was 3.39^[a]. As for `CCOC(=O)CCNC(=O)c1sc(C)c(Br)c1F` [1.0481], the figure is 2.78^[a]; as for `CCOC(=O)C(C)NC(=O)c1sc(Cl)c(Br)c1Br` (stereo not shown) [1.0482], 3.91^[a]; as for `COC(=O)C1(NC(=O)c2sc(Cl)c(Br)c2Br)CC1` [1.0483], 3.08^[a]. With `CCOC(=O)CNC(=S)c1sc(Cl)c(Br)c1Cl` [1.0484], the LogP was 4.59^[a].

`COC(=O)CNC(=S)c1sc(Cl)c(Br)c1Cl` [1.0485]: the LogP is 4.08^[a]. As for `O=C(NC1(C(=O)O)CCC1)c1sc(Cl)c(Br)c1Cl` [1.0486], the figure is 2.95^[a].

For the molecule `O=C(NC1(C(=O)O)COC1)c1sc(Br)c(Br)c1F` [1.0489], the LogP was 1.98^[a]. As for `O=C(NC1(C(=O)O)CCC1)c1sc(Br)c(Br)c1Cl` [1.0490], the figure is 2.92^[a]; as for `CCOC(=O)CN(O)C(=O)c1sc(Cl)c(Cl)c1Br` [1.0491], 2.95^[a]. Then `COC(=O)CNC(=O)c1sc(Br)c(Br)c1Cl` [1.0492], with 2.92^[a]. Turning to `CCOC(=O)CNC(=S)c1sc(Br)c(Br)c1Cl` [1.0493], the LogP was 4.58^[a]. Then `O=C(O)CNC(=O)c1sc(Br)c(Br)c1Cl` [1.0494], with 2.28^[a]; and `CCOC(=O)C(NC(=O)c1sc(Br)c(Br)c1F)C1CC1` (stereo not shown) [1.0495], with 3.98^[a]. Take `COC(=O)C(NC(=S)c1sc(Br)c(Br)c1F)C1CC1` (stereo not shown) [1.0496]: the LogP was 4.62^[a]. Then `COC(=O)C(Cc1ccccc1)NC(=S)c1sc(Br)c(Br)c1F` (stereo not shown) [1.0497], with 5.32^[a].

Take `COC(=O)CC[C@H](NC(=O)c1sc(Br)c(Br)c1Cl)C(=O)OC` [1.0498]: the LogP is 3.40^[a]. Consider `COC(=O)CNC(=S)c1sc(Cl)c(Cl)c1I` [1.0499], for which the LogP is 4.12^[a]. As for `O=C(O)CNC(=S)c1sc(Cl)c(Br)c1Cl` [1.0500], the figure is 3.10^[a]; as for `CCOC(=O)C(NC(=O)c1sc(Br)c(C(F)F)c1Br)C(C)C` (stereo not shown) [1.0502], 4.21^[a].

As to `COC(=O)C(NC(=O)c1sc(Br)c(C(F)F)c1Br)C1CC1` (stereo not shown) [1.0503], the LogP is 3.37^[a]. For the molecule `CCOC(=O)C(Cc1ccccc1)NC(=O)c1sc(Br)c(C(F)F)c1Br` (stereo not shown) [1.0504], the LogP is 4.40^[a]. For the molecule `COC(=O)C1(NC(=O)c2sc(Br)c(C(F)F)c2Br)CCC1` [1.0505], the LogP was 3.25^[a]. As for `CCOC(=O)C1(NC(=O)c2sc(Br)c(C(F)F)c2Br)CCC1` [1.0506], the LogP is 3.66^[a].

`CCCOC(=O)C1(NC(=O)c2sc(Br)c(C(F)F)c2Br)CC1` [1.0507]: the LogP was 3.42^[a]. With `O=C(NC1(C(=O)OC2CCC2)CC1)c1sc(Br)c(C(F)F)c1Br` [1.0508], the LogP was 3.57^[a]. Then `N#CCNC(=O)c1sc(Br)c(C(F)F)c1Br` [1.0509], with 2.37^[a]; and `CCOC(=O)CNC(=O)c1sc(C(F)F)c(Br)c1Br` [1.0510], with 3.02^[a]. Then `COC(=O)CNC(=O)c1sc(C(F)F)c(Br)c1Br` [1.0511], with 2.64^[a]; and `COC(=O)C1(NC(=O)c2sc(C(F)F)c(Br)c2Br)CC1` [1.0512], with 2.79^[a].

Turning to `COC(=O)C(C)(C)NC(=O)c1sc(C(F)F)c(Br)c1Br` [1.0513], the LogP is 3.32^[a]. Then `CCOC(=O)C(NC(=O)c1sc(C(F)F)c(Br)c1Br)C(C)C` (stereo not shown) [1.0514], with 4.30^[a]; and `COC(=O)C(NC(=O)c1sc(C(F)F)c(Br)c1Br)C1CC1` (stereo not shown) [1.0515], with 3.46^[a]. Then `CCOC(=O)C(Cc1ccccc1)NC(=O)c1sc(C(F)F)c(Br)c1Br` (stereo not shown) [1.0516], with 4.48^[a]; and `COC(=O)C1(NC(=O)c2sc(C(F)F)c(Br)c2Br)CCC1` [1.0517], with 3.35^[a]; and `CCOC(=O)C1(NC(=O)c2sc(C(F)F)c(Br)c2Br)CCC1` [1.0518], with 3.75^[a]. Then `CCCOC(=O)C1(NC(=O)c2sc(C(F)F)c(Br)c2Br)CC1` [1.0519], with 3.51^[a]; and `O=C(NC1(C(=O)OC2CCC2)CC1)c1sc(C(F)F)c(Br)c1Br` [1.0520], with 3.67^[a]; and `N#CCNC(=O)c1sc(C(F)F)c(Br)c1Br` [1.0521], with 2.45^[a]. Consider `CCOC(=O)C1(NC(=O)c2sc(C(F)F)c(Br)c2Br)CC1` [1.0522], for which the LogP was 3.14^[a]. As for `CC(C)(NC(=O)c1sc(Br)c(Br)c1F)C(=O)O` [1.0523], the LogP was 2.54^[a]. Then `CCOC(=O)C(NC(=O)c1sc(Cl)c(Cl)c1Br)C1CC1` (stereo not shown) [1.0524], with 4.35^[a]; and `COC(=O)C1(NC(=S)c2sc(Br)c(Cl)c2C)CC1` [1.0526], with 3.67^[a]. `COC(=O)CNC(=O)c1sc(Br)c(Br)c1F` [1.0527]: the LogP was 2.52^[a].

As to `COC(=O)C(CC(=O)OC(C)(C)C)NC(=O)c1sc(Br)c(Br)c1Cl` (stereo not shown) [1.0528], the LogP is 4.55^[a].

As to `COC(=O)[C@H](CSC(=O)N(C)C)NC(=O)c1sc(Cl)c(Cl)c1Br` [1.0529], the LogP is 3.58^[a].
